Laboratory results from patent publication US20130310332A1, “MAPLE TREE-DERIVED PRODUCTS AND USES THEREOF” (UNIVERSITY OF RHODE ISLAND, priority 2010, published 2013).
Read-outs that look alike come from different tables or passages of the source.

How the values were obtained:
[1] = DPPH radical scavenging (antioxidant) assay; details: compounds from red maple stems
Experimental: The DPPH radical scavenging activity of ascorbic acid (vitamin C) and the synthetic commercial antioxidant, butylated hydroxytoluene (BHT), are also assayed as positive controls.
The DPPH radical scavenging activity of ascorbic acid (vitamin C) and the synthetic commercial antioxidant, butylated hydroxytoluene (BHT), are also assayed as positive controls. […] Absorbance is read after 30 min at 515 nm, and the scavenging capacity (SC) is calculated as SC %=(A0−A1/A0)×100, where A0 is the absorbance of the reagent blank and A1 is the absorbance of test samples. All tests are performed in triplicate.

[2] = test system: Caco-2 cells; assay: MTS antiproliferative assay, Caco-2; type: cell-based; details: Homo sapiens
Experimental: The extracts are solubilized in DMSO and normalized based on their phenolic content to evaluate their antiproliferative activities against the colon cell lines. […] CCD-18Co cells are grown in EMEM medium supplemented with 10% v/v fetal bovine serum, 1% v/v nonessential amino acids, 1% v/v L-glutamine and 1% v/v antibiotic solution and are used from PDL between 26 to 35 for all experiments. […] The pH of the culture medium is determined using pH indicator paper (pHydrion™ Brilliant, pH 5.5-9.0, Micro Essential Laboratory, NY, USA) inside the incubator. […] Control cells are also run in parallel and subjected to the same changes in medium with 0.5% DMSO. […] At the end of 48 or 72 h of treatment with serially diluted test samples, 20 μl of the MTS reagent, in combination with the electron coupling agent, phenazine methosulfate, is added to the wells and cells are incubated at 37° C. in a humidified incubator for 3 h. […] Data are presented as the mean±S.D. of three separated experiments on each cell line.

[3] = test system: HT-29 cells; assay: MTS antiproliferative assay, HT-29; type: cell-based; details: Homo sapiens
Experimental: (§1) The extracts are solubilized in DMSO and normalized based on their phenolic content to evaluate their antiproliferative activities against the colon cell lines. […] Caco-2 cells are grown in EMEM medium supplemented with 10% v/v fetal bovine serum, 1% v/v nonessential amino acids, 1% v/v L-glutamine and 1% v/v antibiotic solution (Sigma). HT-29 and HCT-116 cells are grown in McCoy's 5a medium supplemented with 10% v/v fetal bovine serum, 1% v/v nonessential amino acids, 2% v/v HEPES and 1% v/v antibiotic solution. CCD-18Co cells are grown in EMEM medium supplemented with 10% v/v fetal bovine serum, 1% v/v nonessential amino acids, 1% v/v L-glutamine and 1% v/v antibiotic solution and are used from PDL between 26 to 35 for all experiments. […] The pH of the culture medium is determined using pH indicator paper (pHydrion™ Brilliant, pH 5.5-9.0, Micro Essential Laboratory, NY, USA) inside the incubator. Cells are counted using a hemacytometer and are plated at 3,000-5,000 cells per well, in a 96-well format for 24 or 48 h prior to sample treatment depending on the cell line. […] Control cells are also run in parallel and subjected to the same changes in medium with 0.5% DMSO.
(§2) At the end of 48 or 72 h of treatment with serially diluted test samples, 20 μl of the MTS reagent, in combination with the electron coupling agent, phenazine methosulfate, is added to the wells and cells are incubated at 37° C. in a humidified incubator for 3 h. Absorbance at 490 nm (OD490) is monitored with a spectrophotometer (SpectraMax M2, Molecular Devices Corp., operated by SoftmaxPro v.4.6 software, Sunnyvale, Calif., USA), to obtain the number of cells relative to control populations. 20 μl of etoposide 4 mg/ml (Sigma) is assayed as a negative control of proliferation. […] Data are presented as the mean±S.D. of three separated experiments on each cell line.

[4] = test system: CCD-18Co cells; assay: MTS antiproliferative assay, normal colon CCD-18Co; type: cell-based; details: Homo sapiens
Experimental: as §1, §2

[5] = test system: HCT-116 cells; assay: MTS antiproliferative assay, HCT-116; type: cell-based; details: Homo sapiens
Experimental: as §1, §2

[6] = biological target: α-glucosidase (Saccharomyces cerevisiae, UniProt P53341); assay: α-Glucosidase inhibition, red maple stem compounds (Example 4); type: biochemical; details: for α-glucosidase inhibitory activity (in words): by number of galloyl groups
[7] = Caco-2, read-out: IC50 Caco-2 48 h, ginnalins, 48 h treatment
[8] = Caco-2, ginnalins, 72 h treatment, read-out: IC50 Caco-2 72 h
[9] = HT-29, read-out: IC50 HT-29 48 h, ginnalins, 48 h treatment
[10] = HT-29, ginnalins, 72 h treatment, read-out: IC50 HT-29 72 h
[11] = ginnalins, 72 h treatment, normal colon cells, read-out: IC50 CCD-18Co 72 h
[12] = HCT-116, read-out: IC50 HCT-116 48 h, ginnalins, 48 h treatment
[13] = HCT-116, ginnalins, 72 h treatment, read-out: IC50 HCT-116 72 h

α-glucosidase, sequence (P53341 whole entry): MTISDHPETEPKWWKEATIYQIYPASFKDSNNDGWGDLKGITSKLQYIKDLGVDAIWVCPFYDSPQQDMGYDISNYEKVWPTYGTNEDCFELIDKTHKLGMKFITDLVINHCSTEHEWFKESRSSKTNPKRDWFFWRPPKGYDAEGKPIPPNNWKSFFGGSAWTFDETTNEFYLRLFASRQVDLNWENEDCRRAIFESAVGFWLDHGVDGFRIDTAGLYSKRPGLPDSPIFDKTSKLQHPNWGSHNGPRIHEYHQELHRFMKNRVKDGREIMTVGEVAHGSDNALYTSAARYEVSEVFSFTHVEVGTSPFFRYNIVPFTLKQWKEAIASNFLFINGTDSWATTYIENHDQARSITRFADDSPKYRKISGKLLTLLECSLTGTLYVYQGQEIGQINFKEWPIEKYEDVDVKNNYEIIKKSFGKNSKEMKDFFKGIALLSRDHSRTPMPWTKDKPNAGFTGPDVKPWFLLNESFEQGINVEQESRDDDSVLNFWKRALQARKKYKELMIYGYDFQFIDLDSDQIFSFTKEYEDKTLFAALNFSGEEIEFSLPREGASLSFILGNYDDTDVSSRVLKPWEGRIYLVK

| IC50 [1] [µM] | Structure (SMILES) | α-glucosidase inhibitory activity (in words) [6] | inhibitors of α-glucosidase enzyme, concentration dependence [6] | also measured |
| --- | --- | --- | --- | --- |
| 18.6 ± 0.77 | O=C(O[C@H]1[C@H](O)[C@@H](OC(=O)c2cc(O)c(O)c(O)c2)CO[C@@H]1CO)c1cc(O)c(O)c(O)c1 [RMS 7, 2,4-di-O-galloyl-1,5-anhydro-D-glucitol] | moderate α-glucosidase inhibitory activity | inhibitors of α-glucosidase enzyme in a concentration-dependent manner | – |
| 18.8 ± 0.77 | O=C(O[C@H]1[C@H](O)[C@@H](CO)OC[C@@H]1OC(=O)c1cc(O)c(O)c(O)c1)c1cc(O)c(O)c(O)c1 [RMS 9, 2,3-di-O-galloyl-1,5-anhydro-D-glucitol] | moderate α-glucosidase inhibitory activity | inhibitors of α-glucosidase enzyme in a concentration-dependent manner | – |
| 32.7 ± 0.48 | O=C(OC[C@H]1OC[C@H](O)[C@@H](O)[C@@H]1O)c1cc(O)c(O)c(O)c1 [RMS 12, 6-O-galloyl-1,5-anhydro-D-glucitol] | do not show any activity | – | IC50 [2, 7]: 31.1 ± 1.9 µg/mL; IC50 [2, 8]: 22.6 ± 1.9 µg/mL; IC50 [3, 9]: 36.2 ± 1.5 µg/mL; IC50 [3, 10]: 27.3 ± 0.6 µg/mL; IC50 [4, 11]: 47.1 ± 5.3 µg/mL; IC50 [5, 12]: 25.1 ± 1.8 µg/mL; IC50 [5, 13]: 20 ± 2 µg/mL |
| 18.5 ± 0.44 | O=C(OC[C@H]1OC[C@H](O)[C@@H](OC(=O)c2cc(O)c(O)c(O)c2)[C@@H]1O)c1cc(O)c(O)c(O)c1 [RMS 18, 3,6-di-O-galloyl-1,5-anhydro-D-glucitol] | moderate α-glucosidase inhibitory activity | inhibitors of α-glucosidase enzyme in a concentration-dependent manner | – |
| 13.1 | O=C(OC[C@H]1OC[C@H](OC(=O)c2cc(O)c(O)c(O)c2)[C@@H](O)[C@@H]1OC(=O)c1cc(O)c(O)c(O)c1)c1cc(O)c(O)c(O)c1 [RMS 24, 2,4,6-tri-O-galloyl-1,5-anhydro-D-glucitol] | powerful α-glucosidase inhibitory activity | inhibitors of α-glucosidase enzyme in a concentration-dependent manner | – |
| 17.7 ± 0.21 | O=C(OC[C@H]1OC[C@H](OC(=O)c2cc(O)c(O)c(O)c2)[C@@H](O)[C@@H]1O)c1cc(O)c(O)c(O)c1 [RMS 26, 2,6-di-O-galloyl-1,5-anhydro-D-glucitol] | moderate α-glucosidase inhibitory activity | inhibitors of α-glucosidase enzyme in a concentration-dependent manner | IC50 [2, 7]: 28.8 ± 1.8 µg/mL; IC50 [2, 8]: 21.7 ± 1 µg/mL; IC50 [3, 9]: 31 ± 2.6 µg/mL; IC50 [3, 10]: 24.1 ± 1.3 µg/mL; IC50 [4, 11]: 46.6 ± 3.6 µg/mL; IC50 [5, 12]: 21.5 ± 1.6 µg/mL; IC50 [5, 13]: 16.3 ± 2.1 µg/mL |
| 30.5 ± 0.8 | O=C(O[C@H]1CO[C@H](CO)[C@@H](O)[C@@H]1O)c1cc(O)c(O)c(O)c1 [RMS 27, 2-O-galloyl-1,5-anhydro-D-glucitol] | do not show any activity | – | IC50 [2, 7]: 35 ± 1.4 µg/mL; IC50 [2, 8]: 29.8 ± 1.2 µg/mL; IC50 [3, 9]: 33.8 ± 2 µg/mL; IC50 [3, 10]: 30.1 ± 1.3 µg/mL; IC50 [5, 12]: 27 ± 1.9 µg/mL; IC50 [5, 13]: 22.3 ± 2.4 µg/mL |

Second part, the compound before the results:

| Structure (SMILES) | IC50 [1] [µM] | α-glucosidase inhibitory activity (in words) [6] | inhibitors of α-glucosidase enzyme, concentration dependence [6] | also measured |
| --- | --- | --- | --- | --- |
| Cc1cc(C(C)(C)C)c(O)c(C(C)(C)C)c1 [BHT, butylated hydroxytoluene, reference compound] | 1634 ± 16.1 | – | – | – |
| COc1cc([C@@H]2c3cc4c(cc3[C@@H](O[C@@H]3O[C@@H]5CO[C@@H](C)O[C@H]5[C@H](O)[C@H]3O)[C@H]3COC(=O)[C@H]23)OCO4)cc(OC)c1O [Etoposide, reference compound] | – | – | – | IC50 ([2]; Caco-2, MTS assay control, read-out: IC50 Caco-2 (control of proliferation)): 10 to 20 µM; IC50 ([3]; HT-29, MTS assay control, read-out: IC50 HT29 (control of proliferation)): 10 to 20 µM; IC50 ([4]; MTS assay control, read-out: IC50 CCD-18Co (control of proliferation)): 30 to 40 µM; IC50 ([5]; HCT-116, MTS assay control, read-out: IC50 HCT116 (control of proliferation)): 10 to 20 µM |
| O=C(O[C@H]1[C@H](O)[C@@H](CO)OC[C@@H]1O)c1cc(O)c(O)c(O)c1 [RMS 4, 3-O-galloyl-1,5-anhydro-D-glucitol] | 48 ± 1.11 | do not show any activity | – | – |
| O=C(O[C@H]1[C@H](O)[C@@H](O)CO[C@@H]1CO)c1cc(O)c(O)c(O)c1 [RMS 5, 4-O-galloyl-1,5-anhydro-D-glucitol] | 45.6 ± 1.45 | do not show any activity | – | – |
| O=C(O)c1cc(O)c(O)c(O)c1 [RMS 14, gallic acid] | 20.4 ± 0.34 | – | – | – |
| COC(=O)c1cc(OC)c(O)c(OC)c1 [RMS 15, Methyl 3,5-dimethoxy-4-hydroxybenzoate] | 991 ± 80.6 | – | – | – |
| COC(=O)c1cc(O)c(O)c(O)c1 [RMS 17, Methyl gallate] | 16.5 ± 0.26 | – | inhibitors of α-glucosidase enzyme in a concentration-dependent manner | – |
| COC(=O)c1cc(O)c(O)c(OC)c1 [RMS 28, 3,4-dihydroxy-5-methoxybenzoic acid methyl ester] | 116 ± 4.98 | – | – | – |
| O=C1O[C@H]([C@@H](O)CO)C(O)=C1O [Vitamin C, ascorbic acid, reference compound] | 71 ± 1.61 | – | – | – |
